Experimental data taken from ChEMBL document CHEMBL5331124, “Degradation of Hexokinase 2 Blocks Glycolysis and Induces GSDME-Dependent Pyroptosis to Amplify Immunogenic Cell Death for Breast Cancer Therapy” (J Med Chem, 2023).
Activity calls are given as the source filed them. The rule behind the calls is not given here.

Experiments:
[1] = molecular target: Protein cereblon/Hexokinase-2 (Homo sapiens) (UniProt P52789+Q96SW2); assay: PROTAC activity at CRBN/HK2 in human MDA-MB-231 cells assessed as […] ternary complex formation at 10 uM incubated for 24 hrs in presence of MG132; assay type: cell-based
[2] = molecular target: Protein cereblon/Hexokinase-2 (Mus musculus) (UniProt O08528+Q8C7D2); assay: PROTAC activity at CRBN/HK2 in mouse 4T1 cells assessed as HK2 degradation at 20 uM incubated for 36 hrs; assay type: cell-based
4T1 [3] = assay: Induction of mitochondrial damage in mouse 4T1 cells assessed as reduction in ATP level at 20 uM measured for 36 hrs; assay type: functional, cell-based
[4] = Toxicity in BALB/c mouse implanted with mouse 4T1 cells assessed as effect on hemoglobin level at 50 mg/kg, ip measured after 25 days by routine blood test; assay type: organism-based; conditions: in vivo, 600 h, time 25 day
4T1 [5] = assay: Antitumor immunity against mouse 4T1 cells implanted in BALB/c mouse model assessed as upregulation of IFN-gamma expression in mouse tumor by ELISA analysis; assay type: functional, cell-based

Protein cereblon/Hexokinase-2 (Homo sapiens), sequence (P52789 whole entry, looked up): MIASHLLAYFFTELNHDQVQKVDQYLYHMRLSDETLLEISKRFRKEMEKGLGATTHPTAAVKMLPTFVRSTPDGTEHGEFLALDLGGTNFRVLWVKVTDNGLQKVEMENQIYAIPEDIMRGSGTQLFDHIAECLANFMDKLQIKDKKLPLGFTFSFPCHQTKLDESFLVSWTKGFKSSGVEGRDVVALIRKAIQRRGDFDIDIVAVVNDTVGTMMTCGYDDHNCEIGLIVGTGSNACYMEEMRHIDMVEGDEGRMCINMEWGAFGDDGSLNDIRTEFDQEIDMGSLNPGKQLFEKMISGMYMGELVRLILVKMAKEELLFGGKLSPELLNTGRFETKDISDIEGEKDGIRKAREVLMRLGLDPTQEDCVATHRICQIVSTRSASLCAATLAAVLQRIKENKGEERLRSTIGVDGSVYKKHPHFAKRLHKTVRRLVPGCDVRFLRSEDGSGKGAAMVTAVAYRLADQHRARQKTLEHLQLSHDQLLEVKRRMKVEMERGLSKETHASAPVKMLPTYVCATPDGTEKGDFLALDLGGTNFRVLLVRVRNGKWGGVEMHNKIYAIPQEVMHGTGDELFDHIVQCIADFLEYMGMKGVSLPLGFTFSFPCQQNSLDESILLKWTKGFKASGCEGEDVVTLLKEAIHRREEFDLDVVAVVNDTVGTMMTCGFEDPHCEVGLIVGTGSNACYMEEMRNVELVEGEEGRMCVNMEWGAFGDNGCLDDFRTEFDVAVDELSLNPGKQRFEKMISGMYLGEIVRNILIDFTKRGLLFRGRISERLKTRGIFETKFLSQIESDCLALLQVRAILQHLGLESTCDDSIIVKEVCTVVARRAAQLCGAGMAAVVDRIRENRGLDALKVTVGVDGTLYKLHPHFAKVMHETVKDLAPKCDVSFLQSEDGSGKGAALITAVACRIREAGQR
Protein cereblon/Hexokinase-2 (Homo sapiens), sequence (Q96SW2 whole entry, looked up): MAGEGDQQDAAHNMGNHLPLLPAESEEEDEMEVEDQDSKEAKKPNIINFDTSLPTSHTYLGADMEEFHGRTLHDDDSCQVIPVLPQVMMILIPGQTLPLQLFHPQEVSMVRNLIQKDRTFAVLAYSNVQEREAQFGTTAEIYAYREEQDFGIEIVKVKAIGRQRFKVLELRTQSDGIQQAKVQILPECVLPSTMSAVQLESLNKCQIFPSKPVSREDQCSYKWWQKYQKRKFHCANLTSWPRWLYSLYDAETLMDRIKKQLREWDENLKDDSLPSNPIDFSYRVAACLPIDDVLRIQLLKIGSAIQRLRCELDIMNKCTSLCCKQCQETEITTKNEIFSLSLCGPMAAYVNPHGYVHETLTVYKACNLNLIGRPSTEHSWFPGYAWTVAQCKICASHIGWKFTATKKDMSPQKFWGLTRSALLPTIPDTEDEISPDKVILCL
Protein cereblon/Hexokinase-2 (Mus musculus), sequence (O08528 whole entry, looked up): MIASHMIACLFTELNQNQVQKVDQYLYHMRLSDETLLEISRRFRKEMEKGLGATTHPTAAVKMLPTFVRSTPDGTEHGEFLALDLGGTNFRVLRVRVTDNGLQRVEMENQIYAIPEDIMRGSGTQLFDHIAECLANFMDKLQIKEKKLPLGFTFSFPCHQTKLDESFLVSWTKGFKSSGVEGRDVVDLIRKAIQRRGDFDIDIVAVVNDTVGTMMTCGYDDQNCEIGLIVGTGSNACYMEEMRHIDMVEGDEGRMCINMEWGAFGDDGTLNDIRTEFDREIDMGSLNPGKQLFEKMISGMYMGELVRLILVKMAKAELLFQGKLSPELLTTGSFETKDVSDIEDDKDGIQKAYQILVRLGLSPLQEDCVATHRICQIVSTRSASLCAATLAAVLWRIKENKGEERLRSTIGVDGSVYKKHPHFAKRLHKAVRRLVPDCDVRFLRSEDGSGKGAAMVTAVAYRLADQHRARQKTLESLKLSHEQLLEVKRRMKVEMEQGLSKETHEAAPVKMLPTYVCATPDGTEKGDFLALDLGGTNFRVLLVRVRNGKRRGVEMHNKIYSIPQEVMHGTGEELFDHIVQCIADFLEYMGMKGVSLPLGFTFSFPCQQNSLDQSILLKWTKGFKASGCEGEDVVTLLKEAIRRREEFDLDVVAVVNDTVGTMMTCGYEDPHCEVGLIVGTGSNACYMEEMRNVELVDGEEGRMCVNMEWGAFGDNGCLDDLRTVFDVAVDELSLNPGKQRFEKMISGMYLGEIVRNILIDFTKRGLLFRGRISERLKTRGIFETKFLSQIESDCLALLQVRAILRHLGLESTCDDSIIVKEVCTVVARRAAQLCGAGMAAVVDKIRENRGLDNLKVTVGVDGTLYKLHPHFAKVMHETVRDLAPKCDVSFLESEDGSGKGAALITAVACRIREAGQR
Protein cereblon/Hexokinase-2 (Mus musculus), sequence (Q8C7D2 whole entry, looked up): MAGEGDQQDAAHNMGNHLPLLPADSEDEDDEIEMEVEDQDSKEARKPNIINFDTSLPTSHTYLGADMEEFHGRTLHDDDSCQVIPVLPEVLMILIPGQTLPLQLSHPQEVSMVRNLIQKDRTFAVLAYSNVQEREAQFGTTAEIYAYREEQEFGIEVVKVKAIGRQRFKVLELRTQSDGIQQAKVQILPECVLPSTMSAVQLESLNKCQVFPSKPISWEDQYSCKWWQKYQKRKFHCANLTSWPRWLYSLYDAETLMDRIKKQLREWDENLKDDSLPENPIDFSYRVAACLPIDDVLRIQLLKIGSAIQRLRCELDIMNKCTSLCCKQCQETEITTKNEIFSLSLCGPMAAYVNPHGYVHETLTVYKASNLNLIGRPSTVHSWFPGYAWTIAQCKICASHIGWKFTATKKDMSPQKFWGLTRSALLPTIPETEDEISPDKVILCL

Compound: O=C1CCC(N2C(=O)c3cccc(NCCCCNC(=O)c4nn(Cc5ccc(Cl)cc5Cl)c5ccccc45)c3C2=O)C(=O)N1 (stereo not given)
- Activity [1]: inactive
- Activity [2]: Active
- Activity (4T1 [3]): Active
- Activity [4]: Non-Toxic
- Activity (4T1 [5]): Active
